# Earlier results, collected in patent publication US12390418B2, “Biphasic compositions comprising one or both of carbonate and phosphate” (NATURAL EXTRACTION SYSTEMS, LLC, priority 2021, dated 2025).
# Settings: in water at 20 degrees Celsius
row,Molecule,association constant for protonation (Kb)
1,phosphate,approximately 23 millimolar
2,O=P(O)(O)O [hydrogen phosphate],approximately 160 nanomolar
3,O=C(O)O [bicarbonate],approximately 22 nanomolar
4,O=C(O)O [carbonate],approximately 210 micromolar
